Test results reported in PubChem BioAssay (NCI).
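Protocol summary: plate cells (96-well), add compound at 5 concentrations, incubate 48 h, interpolate endpoints linearly. TGI marks complete inhibition of growth.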

Experiments:
Test in all cases: NCI anticancer screen, dose series, 48 h
[1] = tested on: LXFL 529 NSCLC
[2] = tested on: NCI-H522 lung
[3] = tested on: NCI-H23 lung
[4] = tested on: SK-OV-3 ovarian
[5] = tested on: A549 NSCLC
[6] = tested on: MALME-3M melanoma
[7] = tested on: DLD-1 colon
[8] = tested on: SNB-19 CNS
[9] = tested on: OVCAR-8 ovarian
[10] = tested on: HT29 colon
[11] = tested on: M19-MEL melanoma
[12] = tested on: SW-620 colon
[13] = tested on: OVCAR-4 ovarian
[14] = tested on: RXF 393 renal
[15] = tested on: M14 melanoma
[16] = tested on: SR leukemia
[17] = tested on: SK-MEL-28 melanoma
[18] = tested on: ACHN renal
[19] = tested on: MOLT-4 leukemia
[20] = tested on: SF-539 CNS
[21] = tested on: KM12 colon
[22] = tested on: UACC-62 melanoma
[23] = tested on: SF-295 CNS
[24] = tested on: HL-60(TB) leukemia
[25] = tested on: TK-10 renal
[26] = tested on: SN12C renal
[27] = tested on: HCT-116 colon
[28] = tested on: NCI-H460 lung
[29] = tested on: XF 498 CNS
[30] = tested on: OVCAR-5 ovarian
[31] = tested on: K-562 leukemia
[32] = tested on: SK-MEL-5 melanoma
[33] = tested on: UO-31 renal
[34] = tested on: SK-MEL-2 melanoma
[35] = tested on: OVCAR-3 ovarian
[36] = tested on: KM20L2 colon
[37] = tested on: HCC-2998 colon
[38] = tested on: A498 renal
[39] = tested on: DMS 273 small cell lung
[40] = tested on: CAKI-1 renal
[41] = tested on: SF-268 CNS
[42] = tested on: HCT-15 colon
[43] = tested on: IGROV1 ovarian
[44] = tested on: NCI-H226 lung
[45] = tested on: UACC-257 melanoma
[46] = tested on: U251 CNS
[47] = tested on: HOP-92 NSCLC
[48] = tested on: HOP-18 NSCLC
[49] = tested on: COLO 205 colon
[50] = tested on: SNB-75 CNS
[51] = tested on: LOX IMVI melanoma
[52] = tested on: CCRF-CEM leukemia
[53] = tested on: 786-0 renal
[54] = tested on: RPMI-8226 leukemia
[55] = tested on: SNB-78 CNS
[56] = tested on: EKVX NSCLC
[57] = tested on: DMS 114 small cell lung
[58] = tested on: HOP-62 NSCLC
[59] = tested on: RXF-631 renal

## CCCc1c(C(=O)OCC)[nH]c(-c2ccc(-c3[nH]c(C(=O)OCC)c(CCC)c3C(=O)OCC)o2)c1C(=O)OCC
[1]
  TGI: > 100 µM
[2]
  TGI: > 100 µM
[3]
  TGI: > 100 µM
[4]
  TGI: > 100 µM
[5]
  TGI: > 100 µM
[6]
  TGI: > 100 µM
[7]
  TGI: > 100 µM
[8]
  TGI: > 100 µM
[9]
  TGI: > 100 µM
[10]
  TGI: > 100 µM
[11]
  TGI: > 100 µM
[12]
  TGI: > 100 µM
[13]
  TGI: > 100 µM
[14]
  TGI: > 100 µM
[15]
  TGI: > 100 µM
[16]
  TGI: > 100 µM
[17]
  TGI: > 100 µM
[18]
  TGI: > 100 µM
[19]
  TGI: > 100 µM
[20]
  TGI: > 100 µM
[21]
  TGI: > 100 µM
[22]
  TGI: > 100 µM
[23]
  TGI: > 100 µM
[24]
  TGI: > 100 µM
[25]
  TGI: > 100 µM
[26]
  TGI: > 100 µM
[27]
  TGI: > 100 µM
[28]
  TGI: > 100 µM
[29]
  TGI: > 100 µM
[30]
  TGI: > 100 µM
[31]
  TGI: > 100 µM
[32]
  TGI: > 100 µM
[33]
  TGI: > 100 µM
[34]
  TGI: > 100 µM
[35]
  TGI: > 100 µM
[36]
  TGI: > 100 µM
[37]
  TGI: > 100 µM
[38]
  TGI: > 100 µM
[39]
  TGI: > 100 µM
[40]
  TGI: > 100 µM
[41]
  TGI: > 100 µM
[42]
  TGI: > 100 µM
[43]
  TGI: > 100 µM
[44]
  TGI: > 100 µM
[45]
  TGI: > 100 µM
[46]
  TGI: > 100 µM
[47]
  TGI: > 100 µM
[48]
  TGI: > 100 µM
[49]
  TGI: > 100 µM
[50]
  TGI: > 100 µM
[51]
  TGI: > 100 µM
[52]
  TGI: > 100 µM
[53]
  TGI: > 100 µM
[54]
  TGI: > 100 µM
[55]
  TGI: > 100 µM
[56]
  TGI: > 100 µM
[57]
  TGI: > 100 µM

## NC(=S)NNC(=O)CCC(=O)Nc1ccc(Cl)cc1Cl
[1]
  TGI: 86.9 µM
[2]
  TGI: > 100 µM
[3]
  TGI: > 100 µM
[4]
  TGI: > 100 µM
[5]
  TGI: > 100 µM
[6]
  TGI: > 100 µM
[7]
  TGI: > 100 µM
[8]
  TGI: > 100 µM
[9]
  TGI: > 100 µM
[10]
  TGI: > 100 µM
[11]
  TGI: > 100 µM
[12]
  TGI: > 100 µM
[13]
  TGI: > 100 µM
[14]
  TGI: > 100 µM
[15]
  TGI: > 100 µM
[17]
  TGI: > 100 µM
[18]
  TGI: > 100 µM
[58]
  TGI: > 100 µM
[19]
  TGI: > 100 µM
[20]
  TGI: > 100 µM
[21]
  TGI: > 100 µM
[22]
  TGI: > 100 µM
[23]
  TGI: > 100 µM
[24]
  TGI: > 100 µM
[25]
  TGI: > 100 µM
[26]
  TGI: > 100 µM
[27]
  TGI: > 100 µM
[28]
  TGI: > 100 µM
[30]
  TGI: > 100 µM
[31]
  TGI: > 100 µM
[32]
  TGI: > 100 µM
[33]
  TGI: > 100 µM
[34]
  TGI: > 100 µM
[35]
  TGI: > 100 µM
[36]
  TGI: > 100 µM
[59]
  TGI: > 100 µM
[37]
  TGI: > 100 µM
[38]
  TGI: > 100 µM
[39]
  TGI: > 100 µM
[40]
  TGI: > 100 µM
[41]
  TGI: > 100 µM
[42]
  TGI: > 100 µM
[43]
  TGI: > 100 µM
[44]
  TGI: > 100 µM
[45]
  TGI: > 100 µM
[46]
  TGI: > 100 µM
[47]
  TGI: > 100 µM
[49]
  TGI: > 100 µM
[50]
  TGI: > 100 µM
[51]
  TGI: > 100 µM
[52]
  TGI: > 100 µM
[53]
  TGI: > 100 µM
[54]
  TGI: > 100 µM
[55]
  TGI: > 100 µM
[57]
  TGI: > 100 µM

## O=P(O)(O)C1CCCC(P(=O)(O)O)N1 (stereo not drawn)
[2]
  TGI: > 100 µM
[3]
  TGI: > 100 µM
[4]
  TGI: > 100 µM
[5]
  TGI: > 100 µM
[8]
  TGI: > 100 µM
[9]
  TGI: > 100 µM
[10]
  TGI: > 100 µM
[11]
  TGI: > 100 µM
[14]
  TGI: > 100 µM
[15]
  TGI: > 100 µM
[16]
  TGI: > 100 µM
[17]
  TGI: > 100 µM
[18]
  TGI: > 100 µM
[58]
  TGI: > 100 µM
[19]
  TGI: > 100 µM
[21]
  TGI: > 100 µM
[23]
  TGI: > 100 µM
[24]
  TGI: > 100 µM
[25]
  TGI: > 100 µM
[27]
  TGI: > 100 µM
[28]
  TGI: > 100 µM
[30]
  TGI: > 100 µM
[33]
  TGI: > 100 µM
[36]
  TGI: > 100 µM
[59]
  TGI: > 100 µM
[38]
  TGI: > 100 µM
[39]
  TGI: > 100 µM
[41]
  TGI: > 100 µM
[43]
  TGI: > 100 µM
[44]
  TGI: > 100 µM
[45]
  TGI: > 100 µM
[46]
  TGI: > 100 µM
[47]
  TGI: > 100 µM
[52]
  TGI: > 100 µM
[55]
  TGI: > 100 µM
[56]
  TGI: > 100 µM
[57]
  TGI: > 100 µM

## O=C(CC(=O)Nc1ccccc1O)Nc1ccccc1O
[1]
  TGI: 63.9 µM
[2]
  TGI: 24.8 µM
[3]
  TGI: 64.3 µM
[4]
  TGI: > 100 µM
[5]
  TGI: 95.1 µM
[6]
  TGI: 37.7 µM
[7]
  TGI: 40.3 µM
[8]
  TGI: > 100 µM
[9]
  TGI: > 100 µM
[10]
  TGI: > 100 µM
[11]
  TGI: 28.4 µM
[12]
  TGI: 17.1 µM
[13]
  TGI: > 100 µM
[15]
  TGI: 29.7 µM
[17]
  TGI: 27.4 µM
[18]
  TGI: 22.4 µM
[58]
  TGI: > 100 µM
[19]
  TGI: > 100 µM
[20]
  TGI: 35.1 µM
[21]
  TGI: > 100 µM
[22]
  TGI: 10.9 µM
[23]
  TGI: > 100 µM
[24]
  TGI: 6.01 µM
[25]
  TGI: > 100 µM
[26]
  TGI: 33.8 µM
[27]
  TGI: 27.5 µM
[28]
  TGI: 66.3 µM
[30]
  TGI: > 100 µM
[31]
  TGI: 25.7 µM
[32]
  TGI: 22 µM
[33]
  TGI: 27 µM
[35]
  TGI: 46 µM
[36]
  TGI: > 100 µM
[59]
  TGI: 49.9 µM
[37]
  TGI: > 100 µM
[38]
  TGI: > 100 µM
[39]
  TGI: > 100 µM
[40]
  TGI: > 100 µM
[41]
  TGI: 75.8 µM
[42]
  TGI: 21.8 µM
[43]
  TGI: > 100 µM
[44]
  TGI: > 100 µM
[45]
  TGI: 30 µM
[46]
  TGI: > 100 µM
[47]
  TGI: > 100 µM
[48]
  TGI: 34.2 µM
[49]
  TGI: 33.2 µM
[50]
  TGI: 37.2 µM
[52]
  TGI: > 100 µM
[53]
  TGI: 36 µM
[54]
  TGI: 44.2 µM
[55]
  TGI: > 100 µM
[56]
  TGI: > 100 µM
[57]
  TGI: 12.6 µM
